Data taken from patent publication US20260022143A1, “Cyclic Peptide Inhibitors of IL-23” (JANSSEN PHARMACEUTICA NV, priority 2022, published 2026).
Starred links: 1 amine or outer side, 2 acyl side, 3 side chain; linkers in the order of their positions; H or OH if unused. Positions of bridges follow the written chain, without caps; N, C: chain ends. Non-standard residues stand in square brackets, D forms with d. Residues, ends and D or L forms follow the SMILES beside them. Groups on a side chain read outwards from the residue. *: point of attachment. Me3N+(CH2)2O(CH2)2O(CH2)2CO = C[N+](C)(C)CCOCCOCCC(=O)*; Trp(7-Me) = Cc1cccc2c(C[C@H](N)C(=O)O)c[nH]c12; γGlu = O=C(O)[C@H](CCC(=O)[*:2])N[*:1]; 2Nal = N[C@@H](Cc1ccc2ccccc2c1)C(=O)O; 3Pal = N[C@@H](Cc1cccnc1)C(=O)O; Lys(Me) = CNCCCC[C@H](N)C(=O)O; Pen = CC(C)(S)[C@H](N)C(=O)O; Lauroyl = CCCCCCCCCCCC(=O)*; X11 = N=C(N)NCCOCCOCCC(=O)*; X31 = N=C(N)NCCOCCC(=O)*; Thp = NC1(C(=O)O)CCOCC1; X3 = C[N+](C)(C)CCCCC*; AEEA = NCCOCCOCC(=O)O; Sar = CNCC(=O)O

Tests used:
IL-23R = molecular target: T1, IL-23R (Homo sapiens, UniProt Q5VWK5); assay: IL23R Reporter Assay; format: cell-based; conditions: HEK293 cells containing IL-23R, IL-12RP1 and STAT-inducible firefly luciferase reporter; 10 ng/mL IL-23 (EC90); 5 h at 37° C.; read-out: IL23R Reporter Assay
T1 construct: host or cells: HEK293
T1 sequence (Q5VWK5 24-629): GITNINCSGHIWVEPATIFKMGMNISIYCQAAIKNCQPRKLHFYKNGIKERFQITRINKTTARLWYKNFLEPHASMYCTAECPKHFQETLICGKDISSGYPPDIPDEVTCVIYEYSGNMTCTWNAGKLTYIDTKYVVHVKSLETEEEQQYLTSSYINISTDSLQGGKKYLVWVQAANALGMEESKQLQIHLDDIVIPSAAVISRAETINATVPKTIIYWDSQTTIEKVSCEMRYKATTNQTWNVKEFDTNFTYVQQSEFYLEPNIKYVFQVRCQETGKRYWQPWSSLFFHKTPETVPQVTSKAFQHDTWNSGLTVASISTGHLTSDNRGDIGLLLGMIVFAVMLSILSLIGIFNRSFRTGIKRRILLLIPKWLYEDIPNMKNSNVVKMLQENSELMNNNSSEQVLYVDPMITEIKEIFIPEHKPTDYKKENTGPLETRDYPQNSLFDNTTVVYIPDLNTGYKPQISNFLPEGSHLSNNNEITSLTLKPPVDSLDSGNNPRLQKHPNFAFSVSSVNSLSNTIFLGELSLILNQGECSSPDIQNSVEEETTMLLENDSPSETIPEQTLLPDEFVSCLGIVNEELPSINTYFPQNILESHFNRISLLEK

[1] = Exposed Polar Surface Area (EPSA); format: physicochemical; conditions: SFC on Chirex 3014 column; sample 1 mM DMSO stock; read-out: EPSA
Summary of the method: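 SFC retention on a Chirex 3014 (S-valine/(R)-1-(α-naphthyl)ethylamine) column at 35 °C, 4 mL/min, 14 MPa outlet, 5–60% methanol/20 mM ammonium formate gradient in CO2. Retention times converted to EPSA (Å²) via linear calibration with 8 standards; samples from 1 mM DMSO stock, run in duplicate.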

Row | IC50 (IL-23R) [nM] | EPSA [1] [A^2] | Structure (SMILES)
1 | 1.4 | 157 | CC(=O)N(C)CCCC[C@H](NC(=O)C1(NC(=O)[C@H](Cc2ccc3ccccc3c2)NC(=O)[C@H](Cc2ccc(OCCCCC[N+](C)(C)C)cc2)NC(=O)[C@H]2NC(=O)[C@H](CCCCNC(=O)CCOCCOCC[N+](C)(C)C)NC(=O)[C@H](Cc3c[nH]c4c(C)cccc34)NC(=O)[C@H]([C@@H](C)O)NC(=O)[C@H](CC(=O)N(C)C)NC(=O)[C@@H](NC(=O)CCOCCOCC[N+](C)(C)C)C(C)(C)SSC2(C)C)CCOCC1)C(=O)N[C@@H](CC(N)=O)C(=O)N[C@@H](Cc1cccnc1)C(=O)N(C)CC(=O)N(C)C [compound 384, cPEG3aCO-Pen(3)-N(N(Me)2)-T-7MeW-K(cPEG3a)-Pen(3)-TMAPF-2Nal-THP-K(NMeAc)-N-3Pya-Sar-CON(Me)2] ({Me3N+(CH2)2O(CH2)2O(CH2)2CO}-[Pen]D(NMe2)T[Trp(7-Me)]K(Me3N+(CH2)2O(CH2)2O(CH2)2CO)[Pen]Y(X3)[2Nal][Thp][Lys(Me)](Ac)N[3Pal][Sar]-NMe2; disulfide 1-6)
2 | 390 | 185 | CCCCCCCCCCCC(=O)N[C@@H](CCC(=O)NCCOCCOCC(=O)NCCOCCOCC(=O)NCCCC[C@@H]1NC(=O)[C@H](Cc2c[nH]c3c(C)cccc23)NC(=O)[C@H]([C@@H](C)O)NC(=O)[C@H](CCCCNC(=O)COCCOCCNC(=O)COCCOCCNC(=O)CC[C@H](NC(=O)CCCCCCCCCCC)C(=O)O)NC(=O)[C@@H](NC(=O)CCOCCOCC[N+](C)(C)C)C(C)(C)SSC(C)(C)[C@@H](C(=O)N[C@@H](Cc2ccc(OCCCCC[N+](C)(C)C)cc2)C(=O)N[C@@H](Cc2ccc3ccccc3c2)C(=O)NC2(C(=O)N[C@@H](CCCCN(C)C(C)=O)C(=O)N[C@@H](CC(N)=O)C(=O)N[C@@H](Cc3cccnc3)C(=O)N(C)CC(=O)N(C)C)CCOCC2)NC1=O)C(=O)O [compound 389, cPEG3aCO-Pen(3)-K(PEG2PEG2gEC12)-T-7MeW-K(PEG2PEG2gEC12)-Pen(3)-TMAPF-2Nal-THP-K(NMeAc)-N-3Pya-Sar-CON(Me)2] ({Me3N+(CH2)2O(CH2)2O(CH2)2CO}-[Pen]K([AEEA-AEEA-γGlu-Lauroyl])T[Trp(7-Me)]K([AEEA-AEEA-γGlu-Lauroyl])[Pen]Y(X3)[2Nal][Thp][Lys(Me)](Ac)N[3Pal][Sar]-NMe2; disulfide 1-6)
3 | 1.2 | 148 | CC(=O)N(C)CCCC[C@@H]1NC(=O)[C@H](Cc2c[nH]c3c(C)cccc23)NC(=O)[C@H]([C@@H](C)O)NC(=O)[C@H](CC(=O)N(C)C)NC(=O)[C@@H](NC(=O)CCOCCNC(=N)N)C(C)(C)SSC(C)(C)[C@@H](C(=O)N[C@@H](Cc2ccc(OCCCCC[N+](C)(C)C)cc2)C(=O)N[C@@H](Cc2ccc3ccccc3c2)C(=O)NC2(C(=O)N[C@@H](CCCCN(C)C(C)=O)C(=O)N[C@@H](CC(N)=O)C(=O)N[C@@H](Cc3cccnc3)C(=O)N(C)CC(=O)N(C)C)CCOCC2)NC1=O [compound 390, cPEG2gCO-Pen(3)-N(N(Me)2)-T-7MeW-K(NMeAc)-Pen(3)-TMAPF-2Nal-THP-K(NMeAc)-N-3Pya-Sar-CON(Me)2] (X31-[Pen]D(NMe2)T[Trp(7-Me)][Lys(Me)](Ac)[Pen]Y(X3)[2Nal][Thp][Lys(Me)](Ac)N[3Pal][Sar]-NMe2; disulfide 1-6)
4 | 1.5 | 158 | CC(=O)N(C)CCCC[C@@H]1NC(=O)[C@H](Cc2c[nH]c3c(C)cccc23)NC(=O)[C@H]([C@@H](C)O)NC(=O)[C@H](CC(=O)N(C)C)NC(=O)[C@@H](NC(=O)CCOCCOCCNC(=N)N)C(C)(C)SSC(C)(C)[C@@H](C(=O)N[C@@H](Cc2ccc(OCCCCC[N+](C)(C)C)cc2)C(=O)N[C@@H](Cc2ccc3ccccc3c2)C(=O)NC2(C(=O)N[C@@H](CCCCN(C)C(C)=O)C(=O)N[C@@H](CC(N)=O)C(=O)N[C@@H](Cc3cccnc3)C(=O)N(C)CC(=O)N(C)C)CCOCC2)NC1=O [compound 391, cPEG3gCO-Pen(3)-N(N(Me)2)-T-7MeW-K(NMeAc)-Pen(3)-TMAPF-2Nal-THP-K(NMeAc)-N-3Pya-Sar-CON(Me)2] (X11-[Pen]D(NMe2)T[Trp(7-Me)][Lys(Me)](Ac)[Pen]Y(X3)[2Nal][Thp][Lys(Me)](Ac)N[3Pal][Sar]-NMe2; disulfide 1-6)
5 | 290 | 173 | CCCCCCCCCCCC(=O)N[C@@H](CCC(=O)NCCOCCOCC(=O)NCCOCCOCC(=O)NCCCC[C@@H]1NC(=O)[C@H](Cc2c[nH]c3c(C)cccc23)NC(=O)[C@H]([C@@H](C)O)NC(=O)[C@H](CC(=O)N(C)C)NC(=O)[C@@H](NC(=O)CCOCCOCC[N+](C)(C)C)C(C)(C)SSC(C)(C)[C@@H](C(=O)N[C@@H](Cc2ccc(OCCCCC[N+](C)(C)C)cc2)C(=O)N[C@@H](Cc2ccc3ccccc3c2)C(=O)NC2(C(=O)N[C@@H](CCCCNC(=O)COCCOCCNC(=O)COCCOCCNC(=O)CC[C@H](NC(=O)CCCCCCCCCCC)C(=O)O)C(=O)N[C@@H](CC(N)=O)C(=O)N[C@@H](Cc3cccnc3)C(=O)N(C)CC(=O)N(C)C)CCOCC2)NC1=O)C(=O)O [compound 400, cPEG3aCO-Pen(3)-N(N(Me)2)-T-7MeW-K(PEG2PEG2gEC12)-Pen(3)-TMAPF-2Nal-THP-K(PEG2PEG2gEC12)-N-3Pya-Sar-CON(Me)2] ({Me3N+(CH2)2O(CH2)2O(CH2)2CO}-[Pen]D(NMe2)T[Trp(7-Me)]K([AEEA-AEEA-γGlu-Lauroyl])[Pen]Y(X3)[2Nal][Thp]K([AEEA-AEEA-γGlu-Lauroyl])N[3Pal][Sar]-NMe2; disulfide 1-6)
6 | 5.9 | 155 | CCCCCCCCCCCC(=O)N[C@@H](CCC(=O)NCCOCCOCC(=O)NCCOCCOCC(=O)NCCCC[C@H](NC(=O)C1(NC(=O)[C@H](Cc2ccc3ccccc3c2)NC(=O)[C@H](Cc2ccc(OCCCCC[N+](C)(C)C)cc2)NC(=O)[C@H]2NC(=O)[C@H](CCCCN(C)C(C)=O)NC(=O)[C@H](Cc3c[nH]c4c(C)cccc34)NC(=O)[C@H]([C@@H](C)O)NC(=O)[C@H](CC(=O)N(C)C)NC(=O)[C@@H](NC(=O)CCOCCOCC[N+](C)(C)C)C(C)(C)SSC2(C)C)CCOCC1)C(=O)N[C@@H](CC(N)=O)C(=O)N[C@@H](Cc1cccnc1)C(=O)N(C)CC(=O)N(C)C)C(=O)O [compound 401, cPEG3aCO-Pen(3)-N(N(Me)2)-T-7MeW-K(NMeAc)-Pen(3)-TMAPF-2Nal-THP-K(PEG2PEG2gEC12)-N-3Pya-Sar-CON(Me)2] ({Me3N+(CH2)2O(CH2)2O(CH2)2CO}-[Pen]D(NMe2)T[Trp(7-Me)][Lys(Me)](Ac)[Pen]Y(X3)[2Nal][Thp]K([AEEA-AEEA-γGlu-Lauroyl])N[3Pal][Sar]-NMe2; disulfide 1-6)
